Assay results as given in PMC4501059, “Responding to the challenge of untreatable gonorrhea: ETX0914, a first-in-class agent with a distinct mechanism-of-action against bacterial Type II topoisomerases” (Scientific Reports, 2015).
Converted amounts (≈) assume the structure as drawn. Like-named read-outs stand apart in the source and are kept apart here.

Legend:
[1] = hepatocyte intrinsic clearance; settings: human, hepatocytes
USA100 NRS382 = assay: MIC (modal, CLSI broth microdilution); assay type: cell-based, S. aureus; settings: Staphylococcus aureus, read-out: Modal MIC
[2] = Phase 1 study in healthy volunteers, oral suspension; assay type: in vivo, human
Protocol: A Phase 1 multipart study[65] in healthy adult volunteers (informed consent with males and females of non-childbearing potential) with ETX0914 was performed under approval of the AstraZeneca Innovative Medicines Safety Review Board and the United States Food and Drug Administration. ETX0914 was administered orally as an aqueous suspension containing 1% w/v povidone K29–32, 0.2% m/v sodium lauryl sulfate and 0.25% w/v glycerin. In Part A of this study, 48 healthy subjects (ranging in age from 19 to 55 years) under fasting conditions received single ascending doses of 200–4000 mg formulated ETX0914 or placebo (6:2, ETX0914:placebo). In Part B, a second set of 18 healthy subjects (ranging in age from 22 to 48 years) were randomized into two equal dosing cohorts receiving a single dose of either 1500 mg ([…]) or 3000 mg ([…]) of ETX0914 in the fasting state and 30 minutes after a meal. Safety monitoring for both Parts A and B included vital signs, electrocardiogram, continuous telemetry, safety laboratory testing (clinical chemistry, haematology and urinalysis) and adverse events monitoring. Blood samples (1 mL) were collected at 0.5, 1, 1.5, 2, 2.5, 3, 4, 5, 6, 8, 10, 12, 24, 36, 48 and 72 h post dose. Urine samples were collected during−12 to 0 hours pre-dose, and 0 to 4, 4 to 8, 8 to 12, 12 to 24, 24 to 48, and 48 to 72 h post-dose. PK parameters were separately determined for the cohorts in each of the Part A and Part B studies. Concentrations of ETX0914 in the plasma and urine were quantified by LC-MS/MS. Plasma PK parameters were calculated using Phoenix WinNonLin software.
AZD0914 was analyzed in mouse, rat, dog, monkey plasma using a qualified method which was later validated for human plasma analysis. The validated human method is described below and is representative of the approach taken in other species. AZD0914 was determined in human plasma prepared with K2EDTA as an anticoagulant. AZD0914 and an internal standard (^13C2, ^15N2 AZD0914) were extracted from plasma with tert- butyl methyl ether. After evaporating to dryness under a stream of nitrogen, the residue was reconstituted and quantitated by reverse phase HPLC-MS/MS against a standard curve from 1.00 to 5000 ng/ml. Separation was achieved using a gradient which went from 55% to 85% methanol:acetonitrile (1:1) containing 0.2% formic acid as mobile phase B and 0.2% formic acid in water as mobile phase A at a flow rate of 0.60 ml/min through a Phenomonex Gemini C18 column (50 x 2.0 mm column, […]) heated using a Shimadzu CTO-20AC set to 40 °C. AZD0914 was detected in multiple reaction monitoring (MRM) mode by positive ion electrospray ionization using a Sciex API5500 (Toronto, Canada) mass spectrometer. The ion spray voltage was set to 5500 V and turboionspray temperature was 650 °C. AZD0914 was quantitated using the MRM transition 488.2 → 348.2 using a collision energy of 29 eV. The internal standard, (^13C2, ^15N2 AZD0914), was monitored using identical conditions except for the MRM transition of 492.2 → 348.2.

USA300 NRS384 = assay: MIC (modal, CLSI broth microdilution); assay type: cell-based, S. aureus; settings: Staphylococcus aureus, read-out: Modal MIC
hCav1.2 = hCav1.2 (Homo sapiens, UniProt Q13936); assay: In vitro ion channel function; assay type: cell-based; settings: hCav1.2 IC50, Ca^2+ entry into excitable cells
Sequence of hCav1.2 (P54289 25-1103): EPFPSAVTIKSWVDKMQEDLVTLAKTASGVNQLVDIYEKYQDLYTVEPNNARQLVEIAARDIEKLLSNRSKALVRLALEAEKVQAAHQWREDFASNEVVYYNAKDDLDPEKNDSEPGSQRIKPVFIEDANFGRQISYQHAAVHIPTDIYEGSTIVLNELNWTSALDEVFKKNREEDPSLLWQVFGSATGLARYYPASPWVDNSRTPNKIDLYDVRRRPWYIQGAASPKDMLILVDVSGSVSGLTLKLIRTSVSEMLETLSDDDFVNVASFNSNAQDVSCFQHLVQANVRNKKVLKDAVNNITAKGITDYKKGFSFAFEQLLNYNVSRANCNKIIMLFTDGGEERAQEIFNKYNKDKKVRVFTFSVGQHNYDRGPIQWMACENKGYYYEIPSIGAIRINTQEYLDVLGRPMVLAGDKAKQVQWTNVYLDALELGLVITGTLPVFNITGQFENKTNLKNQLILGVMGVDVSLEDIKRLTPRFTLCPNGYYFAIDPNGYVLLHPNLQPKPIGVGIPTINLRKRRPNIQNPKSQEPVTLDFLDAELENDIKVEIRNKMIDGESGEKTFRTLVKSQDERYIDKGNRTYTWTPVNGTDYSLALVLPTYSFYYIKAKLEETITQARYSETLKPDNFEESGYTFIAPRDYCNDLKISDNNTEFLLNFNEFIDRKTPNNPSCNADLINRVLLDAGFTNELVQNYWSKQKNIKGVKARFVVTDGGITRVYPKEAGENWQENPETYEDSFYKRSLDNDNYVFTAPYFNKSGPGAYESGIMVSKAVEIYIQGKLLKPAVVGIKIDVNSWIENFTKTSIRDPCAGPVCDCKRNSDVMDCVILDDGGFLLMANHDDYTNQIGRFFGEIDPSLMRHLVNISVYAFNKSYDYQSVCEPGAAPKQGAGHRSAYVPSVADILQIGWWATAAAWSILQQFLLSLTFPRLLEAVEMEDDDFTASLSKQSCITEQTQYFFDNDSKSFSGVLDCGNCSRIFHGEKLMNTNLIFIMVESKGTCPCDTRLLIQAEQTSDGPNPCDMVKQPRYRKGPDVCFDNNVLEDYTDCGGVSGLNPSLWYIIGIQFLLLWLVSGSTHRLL
Sequence of hCav1.2 (Q13936 whole entry): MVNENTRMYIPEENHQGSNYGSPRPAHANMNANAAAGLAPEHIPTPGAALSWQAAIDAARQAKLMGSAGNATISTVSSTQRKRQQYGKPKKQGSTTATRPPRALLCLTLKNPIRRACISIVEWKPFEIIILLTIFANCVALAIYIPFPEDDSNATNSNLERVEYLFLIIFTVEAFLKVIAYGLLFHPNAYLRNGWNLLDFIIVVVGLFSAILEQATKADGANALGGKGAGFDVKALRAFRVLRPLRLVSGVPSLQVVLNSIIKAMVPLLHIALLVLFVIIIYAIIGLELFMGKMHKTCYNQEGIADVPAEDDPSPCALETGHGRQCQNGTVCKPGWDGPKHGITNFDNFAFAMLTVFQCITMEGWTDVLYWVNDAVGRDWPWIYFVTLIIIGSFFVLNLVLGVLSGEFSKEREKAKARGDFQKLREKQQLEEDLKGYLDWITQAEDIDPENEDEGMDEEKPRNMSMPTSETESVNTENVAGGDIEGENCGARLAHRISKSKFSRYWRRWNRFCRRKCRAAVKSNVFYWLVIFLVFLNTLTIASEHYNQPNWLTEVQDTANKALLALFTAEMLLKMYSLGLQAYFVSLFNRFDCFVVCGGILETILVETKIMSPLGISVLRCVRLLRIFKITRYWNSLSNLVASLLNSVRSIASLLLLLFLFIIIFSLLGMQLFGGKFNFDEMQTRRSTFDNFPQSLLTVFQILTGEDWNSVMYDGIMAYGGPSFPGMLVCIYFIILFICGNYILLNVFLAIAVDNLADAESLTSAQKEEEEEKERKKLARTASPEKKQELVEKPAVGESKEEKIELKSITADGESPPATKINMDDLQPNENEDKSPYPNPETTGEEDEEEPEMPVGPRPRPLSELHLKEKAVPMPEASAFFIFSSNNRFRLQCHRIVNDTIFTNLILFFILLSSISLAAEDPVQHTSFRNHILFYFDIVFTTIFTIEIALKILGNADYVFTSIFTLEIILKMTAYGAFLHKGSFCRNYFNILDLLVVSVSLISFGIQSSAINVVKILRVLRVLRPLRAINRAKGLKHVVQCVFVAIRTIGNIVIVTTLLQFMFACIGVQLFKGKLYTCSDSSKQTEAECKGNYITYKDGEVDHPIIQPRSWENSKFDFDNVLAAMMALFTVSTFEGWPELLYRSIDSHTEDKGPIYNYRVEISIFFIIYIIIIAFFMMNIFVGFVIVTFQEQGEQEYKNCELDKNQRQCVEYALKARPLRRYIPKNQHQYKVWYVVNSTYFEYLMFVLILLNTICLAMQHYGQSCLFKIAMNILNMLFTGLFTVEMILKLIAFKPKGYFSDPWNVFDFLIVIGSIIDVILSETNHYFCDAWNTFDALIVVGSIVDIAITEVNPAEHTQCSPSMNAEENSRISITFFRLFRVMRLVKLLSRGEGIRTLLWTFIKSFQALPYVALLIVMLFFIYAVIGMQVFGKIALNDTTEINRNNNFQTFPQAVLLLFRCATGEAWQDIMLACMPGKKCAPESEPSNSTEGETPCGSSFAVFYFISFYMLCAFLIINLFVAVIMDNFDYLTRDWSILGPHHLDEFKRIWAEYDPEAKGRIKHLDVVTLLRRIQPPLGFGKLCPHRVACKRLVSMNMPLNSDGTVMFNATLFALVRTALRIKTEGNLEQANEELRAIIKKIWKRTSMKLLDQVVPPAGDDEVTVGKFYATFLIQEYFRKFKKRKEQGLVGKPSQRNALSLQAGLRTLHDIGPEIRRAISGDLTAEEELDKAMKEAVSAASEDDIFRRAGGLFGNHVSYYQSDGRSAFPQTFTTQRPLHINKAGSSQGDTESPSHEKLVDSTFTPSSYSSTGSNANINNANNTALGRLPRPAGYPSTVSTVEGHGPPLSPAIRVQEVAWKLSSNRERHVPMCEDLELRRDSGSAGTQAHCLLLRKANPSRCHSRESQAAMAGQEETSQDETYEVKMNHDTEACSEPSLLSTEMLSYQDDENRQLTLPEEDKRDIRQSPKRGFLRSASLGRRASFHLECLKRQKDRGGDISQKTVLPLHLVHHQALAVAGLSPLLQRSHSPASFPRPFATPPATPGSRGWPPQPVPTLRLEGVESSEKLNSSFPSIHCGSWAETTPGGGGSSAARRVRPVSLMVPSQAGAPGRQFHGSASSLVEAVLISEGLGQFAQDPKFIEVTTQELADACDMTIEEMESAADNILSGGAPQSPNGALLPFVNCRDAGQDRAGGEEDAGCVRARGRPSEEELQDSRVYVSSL
Sequence of hCav1.2 (Q08289 whole entry, further chain): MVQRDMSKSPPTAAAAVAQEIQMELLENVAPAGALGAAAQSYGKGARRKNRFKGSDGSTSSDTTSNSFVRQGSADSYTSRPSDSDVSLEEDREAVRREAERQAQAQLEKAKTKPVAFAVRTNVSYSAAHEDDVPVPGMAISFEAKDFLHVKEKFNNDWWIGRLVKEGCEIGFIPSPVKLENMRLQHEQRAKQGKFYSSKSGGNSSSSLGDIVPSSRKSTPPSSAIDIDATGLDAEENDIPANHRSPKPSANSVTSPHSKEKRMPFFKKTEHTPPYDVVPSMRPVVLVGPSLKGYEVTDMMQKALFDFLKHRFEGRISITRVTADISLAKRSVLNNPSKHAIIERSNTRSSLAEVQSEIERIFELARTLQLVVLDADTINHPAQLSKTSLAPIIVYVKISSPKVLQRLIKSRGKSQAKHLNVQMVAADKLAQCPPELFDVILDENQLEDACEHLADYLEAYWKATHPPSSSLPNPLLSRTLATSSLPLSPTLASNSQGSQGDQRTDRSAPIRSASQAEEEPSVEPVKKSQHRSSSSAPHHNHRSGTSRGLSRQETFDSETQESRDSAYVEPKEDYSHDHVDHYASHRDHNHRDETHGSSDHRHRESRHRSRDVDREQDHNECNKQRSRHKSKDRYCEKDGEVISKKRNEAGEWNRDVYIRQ
Excerpt: (§1) Supplement srep11827-s1.doc, table 3 | column: Table S2: In vitro ion channel function IC50 (µM)

Ito/Kv4.3 = biological target: T1, Ito/Kv4.3 (Homo sapiens, UniProt Q9UK17); assay: In vitro ion channel function; assay type: cell-based; settings: Ito/Kv4.3 IC50, Transient outward K^+ early repolarization
T1 sequence (Q9UK17 1-655): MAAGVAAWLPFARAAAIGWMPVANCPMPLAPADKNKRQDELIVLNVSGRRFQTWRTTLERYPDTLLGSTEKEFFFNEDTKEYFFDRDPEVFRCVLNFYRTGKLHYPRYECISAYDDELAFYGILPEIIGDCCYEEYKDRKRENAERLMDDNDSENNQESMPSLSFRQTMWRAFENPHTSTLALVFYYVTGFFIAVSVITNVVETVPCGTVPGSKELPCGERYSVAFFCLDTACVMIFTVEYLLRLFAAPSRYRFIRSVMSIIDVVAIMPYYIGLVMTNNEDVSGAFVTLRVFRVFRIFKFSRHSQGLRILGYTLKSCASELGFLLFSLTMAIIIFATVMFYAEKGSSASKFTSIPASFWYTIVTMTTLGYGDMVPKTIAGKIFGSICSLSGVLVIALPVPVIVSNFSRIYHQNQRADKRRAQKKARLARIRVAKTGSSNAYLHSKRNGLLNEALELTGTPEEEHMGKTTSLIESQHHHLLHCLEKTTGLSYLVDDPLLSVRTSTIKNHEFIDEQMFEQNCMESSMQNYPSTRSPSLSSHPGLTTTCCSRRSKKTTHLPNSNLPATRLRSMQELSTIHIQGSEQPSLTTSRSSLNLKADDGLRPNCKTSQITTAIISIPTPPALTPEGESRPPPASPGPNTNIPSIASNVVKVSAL
Excerpt: as §1

[3] = plasma protein binding, mouse; settings: in vitro at 1-50 µM
Mycoplasma pneumoniae = test system: Mycoplasma pneumoniae; set-up: method as in ref 3 (supplement); settings: 21 tested; ref 3 (supplement); cited from earlier work
[4] = Human plasma protein binding (PPB); settings: plasma
[5] = both sexes, human, plasma, oral, 3000 mg, fasting

For `C[C@@H]1CN2c3c(cc4c(N5C(=O)OC[C@@H]5C)noc4c3F)CC3(C(=O)NC(=O)NC3=O)[C@H]2[C@H](C)O1` [ETX0914], the hepatocyte CLint [1] was 1 µL/min/1e6 cells, the MIC (USA100 NRS382) was 0.125 µg/mL (≈ 0.256 µM) and the “increase in AUC with high fat meal” value ([2]; 3000 mg) was > 40%. For the same molecule, the serious adverse events ([2]; Phase 1, 200–4000 mg) was “No serious adverse events”, the “mild and non-serious AEs” value ([2]; Phase 1, reversible in all subjects) was “transient dysgeusia and headache” and the AUC [2, 5] was 195 µg·h/mL. The Cmax [2, 5] was 22900 ng/mL, the Tmax ([2]; both sexes, human, plasma, oral, 3000 mg, fasting, read-out: Tmax) was 2.2 h and the AUC ([2]; both sexes, human, plasma, oral, 3000 mg, preceded by a high fat meal) was 281 µg·h/mL. For the same molecule, the Cmax ([2]; both sexes, human, plasma, oral, 3000 mg, with food) was 24000 ng/mL, the Tmax ([2]; both sexes, human, plasma, oral, 3000 mg, with food, read-out: Tmax) was 4 h and the half-life ([2]; both sexes, human, plasma, oral, 8 to 72 hour post-dose period) was 5.2 to 6.25 h. The Tmax ([2]; both sexes, human, plasma, po, fasting, 200–4000 mg single oral dose, read-out: median Tmax) was 1.5 to 2.26 h, the “oral dose excreted as parent drug in urine” value ([2]; both, human, urine, po) was “Less than 5%” and the “margin of human AUC to NOAEL in dog” value ([2]; highest 4000 mg dose) was 4.8 fold. The “margin of human AUC to NOAEL in rat” value ([2]; highest 4000 mg dose) was 6.4 fold, the “margin of human Cmax to NOAEL in dog” value ([2]; highest 4000 mg dose) was 3.7 fold and the “margin of human Cmax to NOAEL in rat” value ([2]; highest 4000 mg dose) was 4.9 fold. The “doses at which the efficacious AUC was exceeded” value ([2]; human AUC0-24h versus dose) was > 800 mg, the MIC (USA300 NRS384) was 0.25 µg/mL (≈ 0.513 µM) and the IC50 (hCav1.2) was 326 µM. The IC50 (Ito/Kv4.3) was 216 µM, the “PPB (%free)” value [3] was 22.1 %free and the “PPB (%free)” value ([3]; listed as AZD0914) was 22.1±0.3 %free. The MIC90 (Mycoplasma pneumoniae) was 1.0^3 µg/ml, the “MIC Range” value (Mycoplasma pneumoniae) was 0.5 to 1.0 µg/mL and the fraction unbound [4] was 0.17.
